Measurements: the supplement of paper PMC10307832

Experiments:
Assay in all cases: relative viability (nuclei count vs DMSO), 5 days (fraction); higher = more cells survive
[1] = compound: CC[C@@H](C)CNCC(=O)N1CCC2=C([C@@H]1COC3=CC=CC(=C3)C)C=CS2 [RU-SKI 43] + Nc1nc2[nH]cc(CCc3ccc(C(=O)N[C@@H](CCC(=O)O)C(=O)O)cc3)c2c(=O)[nH]1 [Pemetrexed] (partner 0.2 µM)
Outline: (§1)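 A single step with final 0.05% Triton X-100, 1% formaldehyde and 1 ug/ml Hoechst fixed the cells and stained nuclei 5 days after treatment. Lung cancer cell lines in 1536-well plates had been treated by pin tool the day after seeding with one drug alone or a fixed anchor-drug dose plus five library-drug doses (not always all listed) in √10 steps, and nuclei were counted on 4× images. Relative viability is the ratio of nuclei in treated wells to nuclei in vehicle wells, taken as the median of duplicate plates.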

[2] = compound: CCc1c2c(nc3ccc(OC(=O)N4CCC(N5CCCCC5)CC4)cc13)-c1cc3c(c(=O)n1C2)COC(=O)[C@]3(O)CC [Irinotecan] + Nc1ncn([C@H]2C[C@H](O)[C@@H](CO)O2)c(=O)n1 [Decitabine] (partner 2 µM)
Outline: as §1

[3] = compound: Cn1cc(-c2cnc3ccc4ccc(CS(=O)(=O)NCc5ccccn5)cc4c(=O)c3c2)cn1 [MK-8033] + Cc1nc(NC(=O)N2CCC[C@H]2C(N)=O)sc1-c1ccnc(C(C)(C)C(F)(F)F)c1 [Alpelisib] (partner 2 µM)
Outline: as §1

[4] = compound: Cn1cc(-c2cnc3ccc4ccc(CS(=O)(=O)NCc5ccccn5)cc4c(=O)c3c2)cn1 [MK-8033] + CS(=O)(=O)CCNCc1ccc(-c2ccc3ncnc(Nc4ccc(OCc5cccc(F)c5)c(Cl)c4)c3c2)o1 [Lapatinib] (partner 2 µM)
Outline: as §1

UMC-11
relative viability ([1]; first compound 0.1 µM): 0.871
relative viability ([1]; first compound 0.3162 µM): 0.951
relative viability ([1]; first compound 1 µM): 0.91
relative viability ([1]; first compound 3.162 µM): 0.824
relative viability ([1]; first compound 10 µM): 0.837
relative viability ([2]; first compound 0.6325 µM): 0.589
relative viability ([2]; first compound 2 µM): 0.461
relative viability ([2]; first compound 6.325 µM): 0.347
relative viability ([2]; first compound 20 µM): 0.2
relative viability ([3]; first compound 0.02 µM): 0.988
relative viability ([3]; first compound 0.06325 µM): 0.979
relative viability ([3]; first compound 0.2 µM): 0.958
relative viability ([3]; first compound 0.6325 µM): 0.961
relative viability ([3]; first compound 2 µM): 0.986
relative viability ([4]; first compound 0.02 µM): 1.02
relative viability ([4]; first compound 0.06325 µM): 0.522
relative viability ([4]; first compound 0.2 µM): 0.866
relative viability ([4]; first compound 0.6325 µM): 1.04
relative viability ([4]; first compound 2 µM): 0.944
